Experiment [1] concerns the target T1, HRas^G12V (Homo sapiens (Human), UniProt P01112, G12V). The experiment in a line: 19F T2-CPMG NMR score. The format is binding. In outline: (§1)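 Fragments were pooled at 240 μM each with 50 μM HRas G12V in 25 mM sodium phosphate pH 7.4, 150 mM NaCl, 5 mM MgCl2, 1 mM TCEP-d16, 10% D2O, and screened by 1H-decoupled 1D 19F NMR at 600 MHz (64 scans, 5 s relaxation delay). T2-CPMG data were collected with 1 ms echoes and eight delays from 1 to 800 ms.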

Experiment [2] has as its target T1, HRas^G12V. Put plainly: 19F DLB (ligand-observed 19F NMR) score. The format is binding. The arrangement: scale not given here. In short, it runs like this:
as §1

Experiment [3] has as its target T1, HRas^G12V. Put plainly: Overall binding/activity in the various assays (NMR consensus binding). The procedure: Since the fragment library was curated using phosphate buffer, 25 mM sodium phosphate pH 7.4, 150 mM NaCl, 5 mM MgCl2, 1 mM TCEP-d16, 10% D2O Fresh TCEP was used for experiments. Screening was performed using ^1H-decoupled 1D ^19F experiment Bruker experiment (zgfhigqn.2) with 64 scans and a relaxation delay of 5 seconds. 50 μM HRas^G12V and 240 μM of each fragment in pools (mixtures) were used.
Hit confirmation was performed using the same ^19F experiment as the screen. Ligand-observed 1D ^1H, protein-observed 1D ^1H, ^1H T2-CPMG as well as Saturation Transfer Difference (STD) experiments were also run on the same samples. Ligand-observed 1D ^1H was run using the standard Bruker sequence with excitation sculpting (zgesgp) with a relaxation delay of 10 seconds and 16 scans per spectrum. Protein-observed 1D ^1H was performed using the same sequence with a relaxation delay of 1 second and 256 scans in order to increase the signal-to-noise of the protein resonances, while keeping the experimental time relatively short. The ^1H T2-CPMG experiment employed a modified version of the Bruker 1D ^1H zgesgp experiment with the addition of a CPMG pulse train after the first 90° excitation pulse. Total duration for each spin echo was fixed at 1 ms (τ=500 μs), while the number of echoes in the pulse train was varied according to the total time (T). The number of scans for each spectrum was 4 and eight delay times were run on each sample, ranging from 1 ms to 800 ms.
STD experiments consisted of two independent spectra with offsets of 0 ppm (on resonance) and −20 ppm (off resonance). […] 160 scans were acquired for each spectrum.
The results obtained with the compounds in the various assays described above are depicted in Table 21.
Because of its power to probe the intrinsically weak interactions (Kd) between targets and low-molecular weight fragments, NMR fragment-based lead discovery (FBLD) is a very useful biophysical method in early stage drug discovery, especially for challenging target proteins; including those with shallow binding pockets. Since FBLD screens are performed using low-molecular weight compounds (fragments) with lower structural complexity, the same chemical space can be covered using a smaller number of drug-like fragments versus use of large libraries of higher-molecular weight lead-like compounds as in high throughput screening (HTS) campaigns. Therefore, FBLD has a much higher hit rate than HTS using only several hundred to several thousand compounds in comparison with approximately 1 million compounds for HTS. Also, the small size of the compounds screened in FBLD means a better chance to fully match the interactions with small or transient pockets within the target protein, where these less tractable pockets cannot be accessed with standard classical HTS methods. […] We expect this methodology to be more advantageous than classical HTS methods for expediting the time from hit to lead (H2L) and allows for rapid access to high quality leads with lower attrition rates in subsequent lead optimization (LO) campaigns toward pre-clinical candidate selection. FBLD screening by NMR involves a “consensus binding” approach where several distinct NMR experiments (DLB, STD, CPMG) are applied along with a free-state aggregation detection method (T2-CPMG) to rank the compounds for their affinity to the receptor (HRAS in this case) whilst simultaneously monitoring the solution behavior and critical quality attributes of each compound. The latter helps to eliminate artifact binders which are highly problematic. We performed a fluorine screen involving 461 compounds that were derived from a highly curated fragment library. Moreover, two-dimensional ^15N HSQC NMR was also used to validate ligand-binding sites on the target protein. In addition, we employed protein-detected biophysical measurements were employed to determine fragment binding affinities to the target protein (Kd) by HSQC NMR. […]

Entries after “also recorded” stand apart in the source; their conditions may differ.

For the compound `CN(C)Cc1c[nH]c2ccc(F)cc12` [FS-1254, reference compound], the “19F T2-CPMG Score” value on HRas^G12V [1] is 0.74. Also, the “19F DLB Score” value on HRas^G12V [2] was 1.15. Also, on HRas^G12V [3], the “Binding to HRas^G12V (in words)” value was “low or no binding”.
In the same order, the values of `O=C(O)[C@@H]1CCCN(C(=O)Cc2c[nH]c3cc(F)ccc23)C1` [Compound 10149] are 2.26, 1.56 and “low or no binding”.
In the same order, the values of `O=C(Cc1ccc(F)cc1)NCCc1c[nH]c2cc(F)ccc12` [Compound 10012] are 3.96, 1.32 and “low or no binding”.
`O=C(O)C[C@@H](c1ccccc1F)c1c[nH]c2cc(F)ccc12` (single isomer, unassigned) [Compound 11053]: the “19F T2-CPMG Score” value at HRas^G12V [1] worked out at 25.91. The “19F DLB Score” value on HRas^G12V [2] stood at 2.29. Moreover, the “Activity ranking on HRas^G12V (in words)” value on HRas^G12V [3] is on record as “More active; also recorded: Most active”.
Turning to `CC(=O)N1CC[C@H](NC(=O)Cc2c[nH]c3cc(F)ccc23)C1` [compound 10090], at HRas^G12V [1], the “19F T2-CPMG Score” value is recorded as 6.28. In addition, the “19F DLB Score” value at HRas^G12V [2] is 1.51. The “Binding to HRas^G12V (in words)” value at HRas^G12V [3] is reported as “low or no binding”.
Turning to `O=C(O)C1CN(C(=O)Cc2c[nH]c3cc(F)ccc23)C1` [Compound 10113, 1-(2-(6-fluoro-1H-indol-3-yl)acetyl) azetidine-3-carboxylic acid], the “19F T2-CPMG Score” value at HRas^G12V [1] is 2.55. The “19F DLB Score” value at HRas^G12V [2] is recorded as 1.29. The “Binding to HRas^G12V (in words)” value at HRas^G12V [3] is on record as “low or no binding”.
For the compound `O=C(Cc1c[nH]c2cc(F)ccc12)N[C@H]1CCOC1` [Compound 10070], the “19F T2-CPMG Score” value on HRas^G12V [1] is listed as 5.56. The “19F DLB Score” value on HRas^G12V [2] came to 1.46. Also, the “Binding to HRas^G12V (in words)” value on HRas^G12V [3] is listed as “low or no binding”.
For the compound `CCN(CC)CC(=O)NCCc1c[nH]c2cc(F)ccc12` [Compound 10064], the “19F T2-CPMG Score” value at HRas^G12V [1] is on record as 1.74. Further, the “19F DLB Score” value on HRas^G12V [2] is recorded as 1.16. Further, the “Binding to HRas^G12V (in words)” value at HRas^G12V [3] is listed as “low or no binding”.
In the same order, the values of `C[C@H](NC(=O)Cc1c[nH]c2cc(F)ccc12)C(=O)O` [Compound 10084] are 1.7, 1.09 and “low or no binding”.
As for `Fc1ccc2c(C3=CCNCC3)c[nH]c2c1` [Compound 11011], the “19F T2-CPMG Score” value on HRas^G12V [1] was found to be 5.22. Also, on HRas^G12V [2], the “19F DLB Score” value was found to be 1.52. Further, on HRas^G12V [3], the “Binding to HRas^G12V (in words)” value is reported as “low or no binding”.
For `CC1CN(C(=O)Cc2cc(F)cc3[nH]ccc23)C1` [Compound 10172, 2-(6-fluoro-1H-indol-4-yl)-1-(3-methylazetidin-1-yl) ethan-1-one] the same measures were 0.11, 0.93 and “low or no binding”.
For `CS(=O)(=O)NCCC(=O)NCCc1c[nH]c2cc(F)ccc12` [Compound 10082, N-(2-(6-fluoro-1H-indol-3-yl)ethyl)-3-(methylsulfonamido)propanamide] the same measures were 2.61, 1.22 and “low or no binding”.
For `CCOC(=O)CNC(=O)Cc1c[nH]c2cc(F)ccc12` [Compound 10050] the same measures were 2.95, 1.22 and “low or no binding”.
For the compound `CN(C)CC(=O)Nc1ccccc1NC(=O)Cc1c[nH]c2cc(F)ccc12` [Compound 11014], the “19F T2-CPMG Score” value at HRas^G12V [1] is recorded as 3.32. Also, at HRas^G12V [2], the “19F DLB Score” value is 1.44. For the same compound, the “Binding to HRas^G12V (in words)” value at HRas^G12V [3] was “low or no binding”.
In the same order, the values of `CC(=O)N1CCC[C@H](NC(=O)Cc2c[nH]c3cc(F)ccc23)C1` [Compound 10073, (S)—N-(1-acetylpiperidin-3-yl)-2-(6-fluoro-1H-indol-3-yl)acetamide] are 2.3, 1.17 and “low or no binding”.
With `CCOC(=O)C(CC(C)C)NC(=O)Cc1c[nH]c2cc(F)ccc12` (stereo not drawn) [Compound 10093], the “19F T2-CPMG Score” value at HRas^G12V [1] was determined as 4.89. Also, on HRas^G12V [2], the “19F DLB Score” value was determined as 1.35. For the same compound, at HRas^G12V [3], the “Binding to HRas^G12V (in words)” value is “low or no binding”.
For `O=C(O)CC1CCN(C(=O)Cc2c[nH]c3cc(F)ccc23)CC1` [Compound 10127], at HRas^G12V [1], the “19F T2-CPMG Score” value came to 4.35. For the same compound, the “19F DLB Score” value on HRas^G12V [2] came to 1.3. For the same compound, on HRas^G12V [3], the “Binding to HRas^G12V (in words)” value was “low or no binding”.
For `COC(=O)[C@H]1CN(C)CCN1C(=O)Cc1c[nH]c2cc(F)ccc12` [Compound 10157, Methyl (R)-1-(2-(6-fluoro-1H-indol-3-yl)acetyl)-4-methylpiperazine-2-carboxylate] the same measures were 3.58, 1.04 and “low or no binding”.
For `O=C(Cc1c[nH]c2cc(F)ccc12)N1CCOC(c2ccccc2)C1` (stereo not drawn) [Compound 10136] the same measures were 6.73, 1.55 and “low or no binding”.
Regarding `O=C(CN1CCCCC1)c1c[nH]c2cc(F)ccc12` [compound 10076], the “19F T2-CPMG Score” value on HRas^G12V [1] is 37.86. Further, the “19F DLB Score” value on HRas^G12V [2] is on record as 3.34. In addition, on HRas^G12V [3], the “Activity ranking on HRas^G12V (in words)” value is “More active”.
As to `O=C(O)[C@H]1COCCN1C(=O)Cc1c[nH]c2cc(F)ccc12` [Compound 10152], the “19F T2-CPMG Score” value at HRas^G12V [1] was 3.54. The “19F DLB Score” value at HRas^G12V [2] stood at 1.03. For the same compound, the “Binding to HRas^G12V (in words)” value on HRas^G12V [3] is “low or no binding”.
Take `O=C(O)CN1CCC(NC(=O)Cc2c[nH]c3cc(F)ccc23)CC1` [Compound 10108, 2-(4-(2-(6-fluoro-1H-indol-3-yl)acetamido)piperidin-1-yl)acetic acid]: the “19F T2-CPMG Score” value on HRas^G12V [1] is on record as 5.72. On HRas^G12V [2], the “19F DLB Score” value was found to be 1.34. Also, the “Binding to HRas^G12V (in words)” value at HRas^G12V [3] is “low or no binding”.
For `CC1CN(C(=O)Cc2cc3ccc(F)cc3[nH]2)C1` [Compound 10143, 2-(6-fluoro-1H-indol-2-yl)-1-(3-methylazetidin-1-yl)ethan-1-one] the same measures were 0.9, 0.89 and “low or no binding”.
In the same order, the values of `COC(=O)Cc1c[nH]c2cc(F)ccc12` [Compound 11001] are 6.77, 1.76 and “low or no binding”.
As for `O=C(O)CC(c1ccccc1F)c1c[nH]c2cc(F)ccc12` (stereo not drawn) [Compound 11043], at HRas^G12V [1], the “19F T2-CPMG Score” value is given as 20.23. Further, the “19F DLB Score” value on HRas^G12V [2] is 3.27. Besides, the “Activity ranking on HRas^G12V (in words)” value at HRas^G12V [3] is listed as “More active”.
Take `O=C(Cc1c[nH]c2cc(F)ccc12)NCCc1ccc(F)cc1` [Compound 10031]: the “19F T2-CPMG Score” value on HRas^G12V [1] came to 1.34. The “19F DLB Score” value on HRas^G12V [2] was 1.13. Besides, on HRas^G12V [3], the “Binding to HRas^G12V (in words)” value is “low or no binding”.
For `CCOC(=O)C(Cc1c[nH]cn1)NC(=O)Cc1c[nH]c2cc(F)ccc12` (stereo not drawn) [Compound 10104] the same measures were 2.49, 1.14 and “low or no binding”.

The values are drawn from US20240408064A1, “RAS INHIBITORS, COMPOSITIONS AND METHODS OF USE THEREOF” (GENETOLEAD INC., priority 2021, published 2024).
